The results in this text go back to ChEMBL document CHEMBL1140772, “Discovery of indenopyrazoles as EGFR and VEGFR-2 tyrosine kinase inhibitors by in silico high-throughput screening” (Bioorg Med Chem Lett, 2008).

The target of assay [1] is Receptor tyrosine-protein kinase erbB-2 (Homo sapiens) (UniProt P04626). The assay can be described thus: Inhibition of HER2 at 1 uM.
Assay [2] addresses Vascular endothelial growth factor receptor 2 (Homo sapiens, UniProt P35968). Put plainly: Inhibition of KDR.
In assay [3] the test system is A-431. Put plainly: Growth inhibition of human A431 cells overexpressing EGFR after 72 hrs by MTT assay. It is filed as functional. The following applies: A-431, 72 h. (In general: Tetrazolium dyes change colour on reduction, which living cells bring about.)
Assay [4] deals with A-431. The assay can be described thus: Inhibition of human CDK in A431 cells assessed as inhibition of phosphorylation of Rb at 1 uM after 12 hrs. It is filed as cell-based.

The structures appear in SMILES notation. Calls of active or inactive are those of the source. The rule behind the calls is not given here.

Sequence of Vascular endothelial growth factor receptor 2 (P35968 whole entry): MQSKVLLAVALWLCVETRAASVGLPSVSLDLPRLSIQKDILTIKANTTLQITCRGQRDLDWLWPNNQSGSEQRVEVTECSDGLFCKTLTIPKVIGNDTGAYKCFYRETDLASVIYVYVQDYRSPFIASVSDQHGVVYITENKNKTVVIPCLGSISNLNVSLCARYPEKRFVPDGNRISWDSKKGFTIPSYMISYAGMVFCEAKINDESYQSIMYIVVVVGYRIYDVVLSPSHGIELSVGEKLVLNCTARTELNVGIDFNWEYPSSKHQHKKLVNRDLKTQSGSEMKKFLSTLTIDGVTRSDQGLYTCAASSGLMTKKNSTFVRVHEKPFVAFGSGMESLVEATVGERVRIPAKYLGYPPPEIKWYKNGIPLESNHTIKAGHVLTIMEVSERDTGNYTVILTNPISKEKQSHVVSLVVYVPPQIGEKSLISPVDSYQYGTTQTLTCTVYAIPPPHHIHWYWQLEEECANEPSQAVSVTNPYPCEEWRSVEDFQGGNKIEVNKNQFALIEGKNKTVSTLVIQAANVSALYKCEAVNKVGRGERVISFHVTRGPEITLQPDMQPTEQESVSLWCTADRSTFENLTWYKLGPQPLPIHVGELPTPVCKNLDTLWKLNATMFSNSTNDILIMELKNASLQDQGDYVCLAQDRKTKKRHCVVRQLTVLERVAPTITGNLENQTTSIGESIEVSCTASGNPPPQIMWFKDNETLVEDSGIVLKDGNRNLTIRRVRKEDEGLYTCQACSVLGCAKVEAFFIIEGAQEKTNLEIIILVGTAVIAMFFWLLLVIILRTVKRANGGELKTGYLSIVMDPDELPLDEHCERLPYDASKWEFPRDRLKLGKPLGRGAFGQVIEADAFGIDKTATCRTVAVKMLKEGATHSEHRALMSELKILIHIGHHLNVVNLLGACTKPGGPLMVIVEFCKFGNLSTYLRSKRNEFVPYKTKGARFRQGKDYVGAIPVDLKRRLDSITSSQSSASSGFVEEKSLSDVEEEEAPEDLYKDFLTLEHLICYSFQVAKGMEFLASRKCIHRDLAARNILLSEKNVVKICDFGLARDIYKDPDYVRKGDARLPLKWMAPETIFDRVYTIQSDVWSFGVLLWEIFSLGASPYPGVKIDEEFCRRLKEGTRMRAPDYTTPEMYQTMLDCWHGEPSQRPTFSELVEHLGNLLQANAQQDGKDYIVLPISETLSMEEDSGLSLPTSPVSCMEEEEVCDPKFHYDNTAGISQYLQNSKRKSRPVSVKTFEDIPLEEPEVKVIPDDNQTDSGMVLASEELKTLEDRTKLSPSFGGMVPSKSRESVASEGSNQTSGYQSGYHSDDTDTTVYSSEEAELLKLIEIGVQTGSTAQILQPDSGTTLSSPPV
Sequence of Receptor tyrosine-protein kinase erbB-2 (Homo sapiens) (P04626 whole entry): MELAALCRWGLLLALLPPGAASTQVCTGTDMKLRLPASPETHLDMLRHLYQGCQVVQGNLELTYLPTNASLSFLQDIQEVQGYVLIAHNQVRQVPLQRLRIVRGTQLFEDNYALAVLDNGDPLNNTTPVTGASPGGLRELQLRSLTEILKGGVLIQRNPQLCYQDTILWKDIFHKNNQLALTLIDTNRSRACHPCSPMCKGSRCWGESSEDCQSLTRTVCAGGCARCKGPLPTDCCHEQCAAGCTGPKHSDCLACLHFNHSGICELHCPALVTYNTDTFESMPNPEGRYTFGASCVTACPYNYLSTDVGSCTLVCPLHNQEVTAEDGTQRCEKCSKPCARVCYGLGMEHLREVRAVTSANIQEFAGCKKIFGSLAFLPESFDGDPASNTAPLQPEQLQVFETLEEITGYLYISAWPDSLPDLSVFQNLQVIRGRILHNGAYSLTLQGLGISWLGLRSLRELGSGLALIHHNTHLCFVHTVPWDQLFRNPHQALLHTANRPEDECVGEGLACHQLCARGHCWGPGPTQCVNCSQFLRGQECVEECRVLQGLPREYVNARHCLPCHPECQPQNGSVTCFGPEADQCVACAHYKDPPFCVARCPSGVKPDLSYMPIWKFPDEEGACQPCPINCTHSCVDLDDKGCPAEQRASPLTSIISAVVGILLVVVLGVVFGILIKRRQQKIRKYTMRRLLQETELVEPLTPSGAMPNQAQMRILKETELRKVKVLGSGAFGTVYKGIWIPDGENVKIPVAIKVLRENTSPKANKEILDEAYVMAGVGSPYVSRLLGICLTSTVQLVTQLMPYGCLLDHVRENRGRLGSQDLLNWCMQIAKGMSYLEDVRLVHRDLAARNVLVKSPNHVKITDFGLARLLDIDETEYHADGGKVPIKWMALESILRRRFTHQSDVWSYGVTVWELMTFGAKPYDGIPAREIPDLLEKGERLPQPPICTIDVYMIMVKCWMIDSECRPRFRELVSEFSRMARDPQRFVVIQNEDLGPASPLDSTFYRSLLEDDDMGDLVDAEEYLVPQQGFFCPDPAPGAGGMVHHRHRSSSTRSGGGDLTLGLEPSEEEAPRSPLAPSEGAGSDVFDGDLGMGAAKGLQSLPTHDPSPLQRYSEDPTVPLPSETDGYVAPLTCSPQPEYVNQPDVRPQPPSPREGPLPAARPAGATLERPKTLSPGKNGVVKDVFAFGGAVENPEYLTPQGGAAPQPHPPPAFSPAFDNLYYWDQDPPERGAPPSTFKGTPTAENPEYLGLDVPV

As for `Nc1ccc(NC(=O)Nc2cccc3c2C(=O)c2c-3n[nH]c2-c2ccc(O)cc2)cc1`, the inhibition (as a rule, the drop in the measured response relative to a control, in per cent) in assay [1] is 7%. In addition, in assay [2], it took 650 nM to reach half-maximal inhibition (IC50). Further, the GI50 (commonly the concentration that inhibits growth by half) in assay [3] was above 10000 nM.
In the case of `COc1ccc(-c2[nH]nc3c2C(=O)c2c(NC(=O)Nc4ccc(N)cc4)cccc2-3)cc1`, the inhibition in assay [1] amounted to 6%. The compound also gave a GI50 in assay [3] of 1590 nM.
For `COc1ccc(-c2[nH]nc3c2C(=O)c2c(NC(=O)Nc4ccc(O)cc4)cccc2-3)cc1` the same measures were 8% and above 10000 nM.
The compound `O=C(Nc1ccc(O)cc1)Nc1cccc2c1C(=O)c1c-2n[nH]c1-c1ccc2c(c1)OCO2` displayed an inhibition in assay [1] of 2%. In addition, the outcome in assay [4] was Active. Further, 700 nM corresponded to half-maximal inhibition in assay [2] (IC50). In addition, growth in assay [3] was halved (GI50) at 56 nM.
`Nc1ccc(NC(=O)Nc2cccc3c2C(=O)c2c-3n[nH]c2-c2ccc(O)c(O)c2)cc1` registered an inhibition in assay [1] of 3%. In assay [3], this compound displayed a GI50 of 4790 nM.
With `Nc1ccc(NC(=O)Nc2cccc3c2C(=O)c2c-3n[nH]c2-c2ccc3c(c2)OCO3)cc1`, in assay [1], the inhibition was 28%. Moreover, in assay [4], the result was Active. 380 nM corresponded to half-maximal inhibition in assay [2] (IC50). Also, the GI50 in assay [3] amounted to 62 nM.
